Source: patent publication US20250222136A1, “GENE EDITING SYSTEM FOR TREATING USHER SYNDROME” (GenKOre, Inc., priority 2022, published 2025)

What was measured:
[1] = system: USH2A gene (F region and R region of exon 13); experiment: Indel efficiency of USH2A guide RNA expression cassettes by next generation sequencing (NGS); assay type: cell-based, human; set-up: Indel efficiency (%) Cas12f1 ver3.0 / Indel efficiency (%) Cas12f1 ver4.0 / Indel efficiency (%) Cas12f1 ver4.1: concentration or dose not given beside the values; conditions: for Indel efficiency (%) Cas12f1 ver3.0: scaffold Cas12f1 ver3.0 (SEQ ID NO: 315); for Indel efficiency (%) Cas12f1 ver3.0 / Indel efficiency (%) Cas12f1 ver4.0 / Indel efficiency (%) Cas12f1 ver4.1: expression cassette, NGS; for Indel efficiency (%) Cas12f1 ver4.0: scaffold Cas12f1 ver4.0 (SEQ ID NO: 316); for Indel efficiency (%) Cas12f1 ver4.1: scaffold Cas12f1 ver4.1 (SEQ ID NO: 317)
Excerpt: A nucleotide sequence encoding the guide RNA designed based on the protospacer sequence selected in Example 2.1 was constructed into an expression cassette, which was immediately transfected to confirm indel efficiency by next generation sequencing (NGS) without the T7E1 assay. Here, the guide RNA was designed to include a U-rich tail sequence (for example, 5′-U4AU6-3′) at the 3′-end.
To confirm indel efficiency of the guide sequences of Cas12f1, a cassette containing the U6 promoter, scaffold sequence, guide sequence, and U-rich tail sequence (T4AT6) was amplified by PCR and used. The process was performed as follows.
The spacer was selected from the 20mer sequence followed by TTTA or TTTG, which are PAM of Cas12f1, and spacers whose sequences end with T were excluded. In addition, to minimize off-target effects, the spacers were designed using CRISPR RGEN TOOL by classifying them with less than 2 mismatches. In addition, the reverse complement sequence comprising a DR (direct repeat) and U-rich sequence was used as an R primer.
1% agarose gel was prepared, and the size marker and PCR products were added to the gel. Electrophoresis was performed to confirm the amplified size.
After confirming the amplified size, the gel was purified according to Experimental Example 9 to quantify the PCR products.
(§1) The day before transfection, HEK293T and ARPE19-HPV cells (80% confluency) cultured in 100 mm dishes were treated with trypsin to detach from the bottom of the dish. The detached cells were placed in 50 ml of pre-warmed medium (see Experimental Example 15 for its composition) and slowly dissolved with a pipette. 24-well plates were prepared according to the number of samples and repetitions, and 500 μl of cell suspension medium was added to each well (1/100 dilution). Then, incubation was performed overnight in a CO2 incubator at 37° C. until transfection.
(§2) The next day, when the cell confluency reached approximately 70% to 80%, 200 μl of the 500 μl medium per well was removed and the plates were placed in the incubator. 1.5 ml tubes were prepared according to the number of samples, and 200 μl of Opti-MEM was added to each tube. 1.5 μg of Cas12f1 DNA and 0.5 μg of gRNA (or a vector containing nucleic acids encoding Cas12f1 DNA and two gRNAs) were added to the tube containing Opti-MEM, and vortexed for 5 seconds (nucleic acid mixture). Then, the nucleic acid mixture and FuGENE HD were added at a ratio of 1:3, and reaction was allowed to occur at room temperature for 20 minutes (that is, in a case where the nucleic acid mixture was 2 μg, 6 μl of FuGENE HD was administered). The 24-well plate was taken out from the incubator, and 200 μl of the solution containing the nucleic acid mixture and FuGENE HD was gently added along the well wall. After shaking the plate sufficiently in an S shape, it was incubated in a CO2 incubator at 37° C. for 72 hours. After 72 hours, the cells were harvested and gDNA was extracted therefrom according to Experimental Example 8.
(§3) NGS analysis to confirm indel efficiency for the target was performed over a total of three PCR rounds.
The conditions for conducting the first PCR for each region are disclosed in Tables 20 to 29 below.

[2] = system: USH2A gene; experiment: Indel efficiency depending on length of the guide sequence; assay type: cell-based, human; conditions: highest value by guide length: F16 22mer, FA12 20mer, R19 24mer, R40 20mer; ver4.1 scaffold for F16, FA12, ver4.0 for R19, R40
Excerpt: Each guide sequence (F16, FA12, R19, R40) selected through Examples 2 and 3 was modified to have a guide sequence of 19- to 25-mer length based on the PAM adjacent to the protospacer sequence, and vectors expressing the same were produced, respectively, to compare the indel efficiency depending on a length of the guide sequence. As for the scaffold sequence, Cas12f1 ver4.1 was used for F16 and FA12, and Cas12f1 ver4.0 was used for R19 and R40, as selected in Example 2.2.
as §1, §2, §3

Molecule	Indel efficiency (%) Cas12f1 ver3.0 [1] [%]	Indel efficiency (%) Cas12f1 ver4.0 [1] [%]	Indel efficiency (%) Cas12f1 ver4.1 [1] [%]	other results
AAUAUGCCAUACAUAUUCC (expressed or natural sequence) [GUIDE-USH2A-FA20]	2.78	0.58	1.03	–
ACAGUGAUGAAUGACUCACC (expressed or natural sequence) [GUIDE-USH2A-FA10]	4.41	1.52	1.89	–
ACUGUGUAGGAGACAAAGGA (expressed or natural sequence) [GUIDE-USH2A-R36]	–	3.06	–	–
AGAGUAAGAUUGGCCCCCUA (expressed or natural sequence) [GUIDE-USH2A-F05]	0.64	1.48	4.83	–
AUUAUACCUUCGUGAAGCUG (expressed or natural sequence) [GUIDE-USH2A-F17]	0.02	0.02	0.18	–
CUUAGAAAGAAGGAUGUAUA (expressed or natural sequence) [GUIDE-USH2A-R40]	–	21.35	8.07	indel efficiency [2]: 73.99%
CUUGCCAGAGAAGGAGUAGA (expressed or natural sequence) [GUIDE-USH2A-R19]	26.08	27.24	9.48	–
CUUGCCAGAGAAGGAGUAGAACAA (expressed or natural sequence) [GUIDE-USH2A-R19-24 mer]	–	–	–	indel efficiency [2]: 83%
GCAUUGGUCAGUGUGUAAGA (expressed or natural sequence) [GUIDE-USH2A-R22]	6.32	16.03	15.79	–
GGGUGAGAACAUUUAAGAUC (expressed or natural sequence) [GUIDE-USH2A-F15]	0.55	–	–	–
UAAUGUGUACAUAUAUCAAA (expressed or natural sequence) [GUIDE-USH2A-F16]	4.19	5.87	10.78	–
UAAUGUGUACAUAUAUCAAAAC (expressed or natural sequence) [GUIDE-USH2A-F16-22 mer]	–	–	–	indel efficiency [2]: 73%
UAAUUCUACCACCAGCCACA (expressed or natural sequence) [GUIDE-USH2A-R26]	–	6.41	–	–
UAGACCCAUAUAACUCAGAG (expressed or natural sequence) [GUIDE-USH2A-R18]	0.46	–	–	–
UAUAGAAAUACCUAGAAUUG (expressed or natural sequence) [GUIDE-USH2A-R10]	1.65	1.20	–	–
UCCAUAUAUAUACAUAUAUA (expressed or natural sequence) [GUIDE-USH2A-FA12]	4.61	–	1.29	indel efficiency [2]: 72.19%
UGUCUCGUCUAUCUUGAAUG (expressed or natural sequence) [GUIDE-USH2A-F02]	1	0.23	0.03	–
UGUUCGUAUCAUCUGCAGUA (expressed or natural sequence) [GUIDE-USH2A-F03]	4.88	5.89	9.89	–
UUUCUUUGCCUUGUAAUACC (expressed or natural sequence) [GUIDE-USH2A-F24]	0.04	0.19	–	–
MS2/MS3/MS4/MS5: engineered sgRNA, SEQ ID NO: 317 (nucleic acid, Engineered sgRNA with modification of MS2/MS3/MS4/MS5; misc_feature 99..118 n is a, c, g or u) guide: ACCGCUUCACUUAGAGUGAAGGUGGGCUGCUUGCAUCAGCCUAAUGUCGAGAAGUGCUUUCUUCGGAAAGUAACCCUCGAAACAAAGAAAGGAAUGCAACNNNNNNNNNNNNNNNNNNNNUUUUAUUUUUU	–	–	–	indel efficiency, scaffold versions compared ([1]; target sequences located in the F region): higher indel efficiency than ver4.0
MS2/MS3/MS4: engineered sgRNA, SEQ ID NO: 316 (nucleic acid, Engineered sgRNA with modification of MS2/MS3/MS4; misc_feature 128..147 n is a, c, g or u) guide: ACCGCUUCACCAAAAGCUGUCCCUUAGGGGAUUAGAACUUGAGUGAAGGUGGGCUGCUUGCAUCAGCCUAAUGUCGAGAAGUGCUUUCUUCGGAAAGUAACCCUCGAAACAAAGAAAGGAAUGCAACNNNNNNNNNNNNNNNNNNNNUUUUAUUUUUU	–	–	–	indel efficiency of cassette compared with Cas12f1 ver3.0 cassette ([1]; USH2A F and R region guide sequences): improved in most samples; indel efficiency, scaffold versions compared ([1]; target sequences located in the R region): higher indel efficiency than ver4.1
